Experimental data from ChEMBL document CHEMBL1159318, “Anti-inflammatory and anti-tumor-promoting effects of cucurbitane glycosides from the roots of Bryonia dioica” (J Nat Prod, 2002).

Columns and labels:
Raji [1] = assay: Inhibition of TPA-induced EBV-early antigen activation in human Raji cells at 1000 molar ratio after 48 hrs relative to TPA; values are per cent of control; details: human gammaherpesvirus 4
Raji [2] = assay: Inhibition of TPA-induced EBV-early antigen activation in human Raji cells at 500 molar ratio after 48 hrs relative to TPA; values are per cent of control; details: human gammaherpesvirus 4
Raji [3] = assay: Inhibition of TPA-induced EBV-early antigen activation in human Raji cells at 100 molar ratio after 48 hrs relative to TPA; values are per cent of control; details: human gammaherpesvirus 4
Raji [4] = assay: Inhibition of TPA-induced EBV-early antigen activation in human Raji cells at 10 molar ratio after 48 hrs relative to TPA; values are per cent of control; details: human gammaherpesvirus 4
[5] = Cytotoxicity against human Raji cells assessed as cell viability at 1000 molar ratio after 48 hrs by trypan blue assay; assay type: cell-based; details: read-out: Activity
Mus musculus [6] = assay: Antiinflammatory activity against ICR mouse assessed as inhibition of TPA-induced ear edema compound administered topically preincubated 30 mins before TPA challenge; assay type: functional
Mus musculus [7] = assay: Antiinflammatory activity against ICR mouse assessed as inhibition ratio of TPA-induced ear edema at 1 mg/ear, topically preincubated 30 mins before TPA challenge relative to TPA; assay type: functional; set-up: scale not given: the % may be the effect or the level left

## CC1=C(/C=C/C(C)=C/C=C/C(C)=C/C=C/C=C(C)/C=C/C=C(C)/C=C/C2=C(C)CCCC2(C)C)C(C)(C)CCC1
Raji [1]
  level, % of control: 8.6%
Raji [2]
  level, % of control: 34.2%
Raji [3]
  level, % of control: 82.1%
Raji [4]
  level, % of control: 100%

## C[C@H](CC[C@@H](O)C(C)(C)O[C@@H]1O[C@H](CO)[C@@H](O)[C@H](O)[C@H]1O)[C@H]1CC[C@@]2(C)[C@@H]3CC=C4[C@@H](CC[C@H](O)C4(C)C)[C@]3(C)C(=O)C[C@]12C [BRYONIOSIDE A]
Raji [1]
  level, % of control: 3.4%
[5]
  viability at 48 h, 1000 molar ratio: 60%
Raji [2]
  level, % of control: 30.4%
Raji [3]
  level, % of control: 75.1%
Raji [4]
  level, % of control: 100%

## C[C@H](CCC(=O)C(C)(C)O)[C@H]1CC[C@@]2(C)[C@@H]3CC=C4[C@@H](CC[C@H](O[C@@H]5O[C@H](CO)[C@@H](O)[C@H](O)[C@H]5O)C4(C)C)[C@]3(C)C(=O)C[C@]12C [BRYONIOSIDE F]
Raji [1]
  level, % of control: 0%
[5]
  viability at 48 h, 1000 molar ratio: 60%
Raji [2]
  level, % of control: 29.2%
Raji [3]
  level, % of control: 71.4%
Raji [4]
  level, % of control: 97.6%

## O=c1c(O)c(-c2ccc(O)c(O)c2)oc2cc(O)cc(O)c12 [QUERCETIN]
Mus musculus [6]
  ID50: 1.6 mg
Mus musculus [7]
  Activity: 40%

## C[C@H](CC[C@@H](O)C(C)(C)O)[C@H]1CC[C@@]2(C)[C@@H]3CC=C4[C@@H](CC[C@H](O)C4(C)C)[C@]3(C)C(=O)C[C@]12C [BRYODULCOSIGENIN]
Raji [1]
  level, % of control: 0%
[5]
  viability at 48 h, 1000 molar ratio: 70%
Raji [2]
  level, % of control: 23.6%
Raji [3]
  level, % of control: 69.3%
Raji [4]
  level, % of control: 88.9%

## C[C@H](C(O)CC(O)C(C)(C)O[C@@H]1O[C@H](CO)[C@@H](O)[C@H](O)[C@H]1O)[C@H]1CC[C@@]2(C)[C@@H]3CC=C4[C@@H](CC[C@H](O)C4(C)C)[C@]3(C)C(=O)C[C@]12C (stereo not given in full) [BRYONIOSIDE E]
Raji [1]
  level, % of control: 11.6%
[5]
  viability at 48 h, 1000 molar ratio: 60%
Mus musculus [6]
  ID50: 0.2 mg
Raji [2]
  level, % of control: 37%
Mus musculus [7]
  Activity: 94%
Raji [3]
  level, % of control: 77.2%
Raji [4]
  level, % of control: 100%

## COc1ccc2c(c1)c(CC(=O)O)c(C)n2C(=O)c1ccc(Cl)cc1 [INDOMETHACIN]
Mus musculus [6]
  ID50: 0.3 mg
Mus musculus [7]
  Activity: 96%

## C[C@H](CCC(=O)C(C)(C)O)[C@H]1CC[C@@]2(C)[C@@H]3CC=C4[C@@H](CC[C@H](O)C4(C)C)[C@]3(C)C(=O)C[C@]12C [BRYOSIGENIN]
Raji [1]
  level, % of control: 0%
[5]
  viability at 48 h, 1000 molar ratio: 70%
Raji [2]
  level, % of control: 28.9%
Raji [3]
  level, % of control: 73.5%
Raji [4]
  level, % of control: 92.7%

## CC(C)(O)CCC(=O)[C@@](C)(O)[C@H]1[C@H](O)C[C@@]2(C)[C@@H]3CC=C4[C@@H](C=C(O[C@@H]5O[C@H](CO)[C@@H](O)[C@H](O)[C@H]5O)C(=O)C4(C)C)[C@]3(C)C(=O)C[C@]12C [BRYOAMARIDE]
Raji [1]
  level, % of control: 0%
[5]
  viability at 48 h, 1000 molar ratio: 60%
Mus musculus [6]
  ID50: 0.7 mg
Raji [2]
  level, % of control: 28.7%
Mus musculus [7]
  Activity: 51%
Raji [3]
  level, % of control: 71.7%
Raji [4]
  level, % of control: 96%

## C[C@H](CCC(=O)C(C)(C)O)[C@H]1CC[C@@]2(C)[C@@H]3CC=C4[C@@H](CC[C@H](O[C@@H]5O[C@H](CO)[C@@H](O)[C@H](O)[C@H]5O[C@@H]5O[C@@H](C)[C@H](O)[C@@H](O)[C@H]5O)C4(C)C)[C@]3(C)C(=O)C[C@]12C [BRYONIOSIDE G]
Raji [1]
  level, % of control: 0%
[5]
  viability at 48 h, 1000 molar ratio: 60%
Mus musculus [6]
  ID50: 0.2 mg
Raji [2]
  level, % of control: 30.6%
Mus musculus [7]
  Activity: 90%
Raji [3]
  level, % of control: 74.2%
Raji [4]
  level, % of control: 100%

## C[C@H](CC[C@@H](O)C(C)(C)O)[C@H]1CC[C@@]2(C)[C@@H]3CC=C4[C@@H](CC[C@H](O[C@@H]5O[C@H](CO)[C@@H](O)[C@H](O)[C@H]5O)C4(C)C)[C@]3(C)C(=O)C[C@]12C [CABENOSIDE D]
Raji [1]
  level, % of control: 0%
[5]
  viability at 48 h, 1000 molar ratio: 60%
Mus musculus [6]
  ID50: 0.6 mg
Raji [2]
  level, % of control: 26.1%
Mus musculus [7]
  Activity: 66%
Raji [3]
  level, % of control: 69.3%
Raji [4]
  level, % of control: 94.1%

## C[C@H](CC[C@@H](O)C(C)(C)O)[C@H]1CC[C@@]2(C)[C@@H]3C[C@@H]4O[C@]45[C@@H](CC[C@H](O[C@@H]4O[C@H](CO)[C@@H](O)[C@H](O)[C@H]4O)C5(C)C)[C@]3(C)C(=O)C[C@]12C [5ALPHA,6ALPHA-EPOXYCABENOSIDE D]
Raji [1]
  level, % of control: 0%
[5]
  viability at 48 h, 1000 molar ratio: 60%
Raji [2]
  level, % of control: 28.6%
Raji [3]
  level, % of control: 70%
Raji [4]
  level, % of control: 95.3%

## CC(=O)O[C@@H]1[C@@H](O)[C@@H](O)[C@H](O[C@H]2[C@H](O[C@H]3CC[C@@H]4C(=CC[C@@H]5[C@@]4(C)C(=O)C[C@]4(C)[C@@H]([C@H](C)CC[C@@H](O)C(C)(C)O)CC[C@@]54C)C3(C)C)O[C@H](CO)[C@@H](O)[C@@H]2O)O[C@H]1C [BRYONIOSIDE C]
Raji [1]
  level, % of control: 0%
[5]
  viability at 48 h, 1000 molar ratio: 60%
Mus musculus [6]
  ID50: 0.3 mg
Raji [2]
  level, % of control: 30.2%
Mus musculus [7]
  Activity: 83%
Raji [3]
  level, % of control: 73.5%
Raji [4]
  level, % of control: 100%

## C[C@H](CC[C@@H](O)C(C)(C)O)[C@H]1CC[C@@]2(C)[C@@H]3CC=C4[C@@H](CC[C@H](O[C@@H]5O[C@H](CO)[C@@H](O)[C@H](O)[C@H]5O[C@@H]5O[C@@H](C)[C@H](O)[C@@H](O)[C@H]5O)C4(C)C)[C@]3(C)C(=O)C[C@]12C [BRYONIOSIDE B]
Raji [1]
  level, % of control: 0%
[5]
  viability at 48 h, 1000 molar ratio: 60%
Mus musculus [6]
  ID50: 0.2 mg
Raji [2]
  level, % of control: 29.9%
Mus musculus [7]
  Activity: 94%
Raji [3]
  level, % of control: 72.7%
Raji [4]
  level, % of control: 97.4%
